From PubChem BioAssay (NCI)
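Cells were grown in 96-well plates and exposed to each compound for 48 hours at five concentrations; endpoints were interpolated linearly between bracketing concentrations, or set to the highest concentration if not reached. The concentration for 50% growth inhibition is given as GI50. TGI: total growth inhibition.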

Tests used:
Assay in all cases: inhibition of tumour cell growth, NCI panel, 48 h
A549 NSCLC = tested on: A549 NSCLC
HL-60(TB) leukemia = tested on: HL-60(TB) leukemia
HS 578T breast = tested on: HS 578T breast
MOLT-4 leukemia = tested on: MOLT-4 leukemia
NCI/ADR-RES ovarian = tested on: NCI/ADR-RES ovarian
OVCAR-3 ovarian = tested on: OVCAR-3 ovarian
RXF 393 renal = tested on: RXF 393 renal
SK-MEL-5 melanoma = tested on: SK-MEL-5 melanoma

Row | SMILES | GI50 (A549 NSCLC) [µM] | TGI (A549 NSCLC) [µM] | GI50 (HL-60(TB) leukemia) [µM] | TGI (HL-60(TB) leukemia) [µM] | GI50 (HS 578T breast) [µM] | TGI (HS 578T breast) [µM] | GI50 (MOLT-4 leukemia) [µM] | TGI (MOLT-4 leukemia) [µM] | GI50 (NCI/ADR-RES ovarian) [µM] | TGI (NCI/ADR-RES ovarian) [µM] | GI50 (OVCAR-3 ovarian) [µM] | TGI (OVCAR-3 ovarian) [µM] | GI50 (RXF 393 renal) [µM] | TGI (RXF 393 renal) [µM] | GI50 (SK-MEL-5 melanoma) [µM] | TGI (SK-MEL-5 melanoma) [µM]
1 | O=c1oc2ccc(-c3ccc(F)cc3F)cc2c(=O)n1-c1ccc(Cl)c(C(F)(F)F)c1 | 3.33 | > 100 | 2.43 | 5.35 | 2.42 | 8.16 | 2.33 | 5.45 | 2.49 | 8.89 | 3.17 | > 100 | 1.7 | 4.59 | 1.6 | 3.05
2 | COc1ccc(C2C=C(c3ccc(Cl)cc3)N=C3SC=C(C)N32)c(Br)c1 (stereo unspecified) | 3 | 24.7 | 3.85 | 51.5 | 2.19 | 7.5 | 4.12 | > 100 | 4.22 | > 100 | 2.36 | 5.48 | 2.39 | 9.59 | 2.8 | 11.2
3 | COc1ccc(Cn2cc3c(c2-c2ccccc2)CCc2cnoc2-3)cc1N | 0.224 | > 100 | 0.137 | 0.617 |  |  | 0.398 | > 96.1 | 0.0828 |  | 0.0526 | 0.244 | 0.32 | > 100 | 0.0617 | 2.58
4 | N#Cc1c(N)nc(NCc2ccccc2)c(C#N)c1-c1ccc(Cl)cc1Cl | > 100 | > 100 |  | > 100 | 85.7 | > 100 | 34.6 | > 100 | > 68.1 | > 100 | > 64.2 | > 100 | 52.4 | > 100 | > 100 | > 100
5 | CN(C)c1ccc(C(c2ccc(Cl)cc2)c2ccc(N(C)C)cc2)cc1 |  | > 100 |  | > 100 |  | > 100 |  | > 100 |  | > 100 |  | > 100 |  | > 100 |  | > 100
6 | Nc1nc(=O)n([C@@H]2CS[C@H](CO)O2)cc1F | > 100 | > 100 | > 100 | > 100 | > 100 | > 100 | > 100 | > 100 | > 100 | > 100 | > 100 | > 100 | > 100 | > 100 | > 100 | > 100
7 | CC(=O)c1cc(C(=O)c2ccc3c(c2)Sc2ccccc2N3)c2c(C)cccn12 | 0.265 | 40.4 | 0.296 | 0.977 | 0.266 | > 36.3 | 0.556 | > 100 | 0.184 | 18 | 0.261 | 0.838 | 0.252 | 2.37 | 0.259 | 4.56
8 | Cc1cc(Cl)ccc1Nc1nc(C(F)(F)F)ccc1C(=O)N/N=C/c1ccccc1Cl | 1.77 | 11.6 | 1.12 |  | 1.26 | 5.67 | 1.29 | > 100 | 1.19 | 7.16 | 0.239 | 2.15 | 1.48 | 4.41 | 1.39 | 3.51
9 | COc1cc(NCCN=C(N)NC(N)=NC(C)C)c2ncccc2c1 | 37.3 | > 100 | 14.3 | 39.6 | 13 | > 75.1 | 25 | > 100 | > 100 | > 100 | 1.06 | 23.1 | > 38.5 | > 100 | 3.4 | 11.7
10 | O=C(Nc1cc(Oc2cc(F)c(NC(=O)C3(C(=O)Nc4ccc(F)cc4)CC3)cc2F)ccn1)C1CC1 | 3.21 | > 36.6 | 2.18 | 5.6 | 2.5 | 6.82 | 2.18 | 7.1 | 2.79 | 8.73 | 3.69 | 13.1 | 2.49 | 4.91 | 1.52 | 3.47
11 | CC1=C[C@H]2C[C@H](C)[C@H]3CC[C@H](C)[C@]4(C1)C(=O)C(O)=C(C)C(=O)[C@@]324 | 28.5 | > 100 | 15.7 | 33.1 | 24.7 | 67.5 | 16.3 | 37.4 | 17.2 | 48.4 | 20 | 64.6 | 60.9 | > 100 | 13.5 | 30.8
12 | O=S(=O)(Nc1ccc(F)c(Cl)c1)c1ccc(-c2cnc(C3CC3)o2)cc1 | 0.773 | 13.1 | 0.213 | 2.16 | 0.28 | 4.53 | 0.396 | 88.2 | 0.252 | 8.76 | 0.154 | 4.01 | 0.196 | 1.28 | 0.316 | 1.67
13 | Cc1ccc(NCCN(C)C)c2c(=O)c3ccccc3sc12 | 1.35 | 3.4 | 1.72 | 4.15 | 1.59 | 3.76 | 1.13 | 4.33 | 1.93 | 4.6 | 1.86 | 3.73 | 1.96 | 4.59 | 1.49 | 2.83
14 | C#COc1cccc(Nc2ncnc3cc(NC(=O)[C@H](C)Cl)ccc23)c1 | 3.18 | > 62.5 | 1.1 | 3.19 | 2.51 | > 62.5 | 2.42 | > 62.5 | 2.4 | > 62.5 | 2.17 | > 62.5 | 3.34 | 39.3 | 1.39 | 3.54
15 | Clc1ccccc1C(Nc1ncccn1)Nc1ncccn1 |  | > 100 |  | > 100 |  | > 100 |  | > 100 |  | > 100 |  | > 100 |  | > 100 |  | > 100
16 | CCOC(=O)c1ccc2c(c1)[n+](=O)c(C(C)=O)c(C(F)(F)F)n2[O-] | 2.04 | 4.39 | 1.44 | 3.08 | 1.4 | 3.96 | 1.31 | 3.97 | 1.89 | 5.98 | 1.49 | 2.93 | 2.15 | 5.77 | 1.5 | 2.84
17 | Cc1cn(-c2ccc(S(C)(=O)=O)cc2)c(-c2ccc(Cl)cc2)n1 | > 100 | > 100 | > 100 | > 100 | > 100 | > 100 | > 100 | > 100 | > 100 | > 100 | > 100 | > 100 |  |  | > 100 | > 100

Row | SMILES | GI50 (A549 NSCLC) [µM] | TGI (A549 NSCLC) [µM] | GI50 (HL-60(TB) leukemia) [µM] | TGI (HL-60(TB) leukemia) [µM] | GI50 (HS 578T breast) [µM] | TGI (HS 578T breast) [µM] | GI50 (MOLT-4 leukemia) [µM] | TGI (MOLT-4 leukemia) [µM] | GI50 (NCI/ADR-RES ovarian) [µM] | TGI (NCI/ADR-RES ovarian) [µM] | GI50 (OVCAR-3 ovarian) [µM] | TGI (OVCAR-3 ovarian) [µM] | GI50 (RXF 393 renal) [µM] | TGI (RXF 393 renal) [µM] | GI50 (SK-MEL-5 melanoma) [µM] | TGI (SK-MEL-5 melanoma) [µM]
18 | CCOC(=O)c1cnn2c3ccccc3n(S(=O)(=O)c3ccc(OC)cc3)c12 | 0.483 | > 100 | 0.226 | 0.695 | 0.459 | > 100 | 0.389 | > 100 | 0.23 | 24.5 | 0.181 | 0.493 | 0.232 |  | 0.319 | 2.27
19 | Cc1ccc(NC(=O)/C(=N/N(C)C)C(C2OC(=O)c3ccccc32)[N+](=O)[O-])cc1 (stereo unspecified) |  | > 100 |  | > 100 |  | > 100 |  | > 100 |  | > 100 |  | > 100 |  | > 100 |  | > 100
20 | COc1cccc(C2C3=C(COC3=O)N(CCO)c3cc4c(cc32)OCO4)c1 (stereo unspecified) | 0.631 | > 50 | 0.132 | 0.352 | 0.251 | 45.2 | 0.315 | > 16.7 | 0.341 | 2.72 | 0.121 | 0.286 | 0.0994 | 0.352 | 0.177 | > 50
21 | C[C@@H]1COCCN1c1cc(C2([S@@](C)(=N)=O)CC2)nc(-c2ccnc3[nH]ccc23)n1 | 4.27 | > 100 | 3.87 | 41.5 | 3.73 | 34.9 | 3.99 | 62.6 | 33.9 | > 100 | 7.07 | > 91.1 | 2.34 | 9.68 | 6.87 | 26.4
22 | COc1ccc(Nc2nc3cc(N)cc(N)c3nc2-c2ccccc2)cc1OC | 35.2 | > 100 |  |  | 18.5 | 50.2 | 6.91 | > 100 | 17.2 | 42.7 | 29.9 | > 100 | 8.15 | 49.4 | 12.2 | 25.5
23 | COc1cccc(/C(C)=N/NC(=O)CSc2nc3ccccc3c(=O)n2CCc2ccc(S(N)(=O)=O)cc2)c1 | 2.01 | 3.93 | > 100 | > 100 | 3.54 | 15.9 | 6.5 | 40.2 | 21.3 | > 100 | 2.32 | 4.8 | 2.71 | 7.7 | 2.03 | 4.24
24 | CC12CCC3c4cc(Br)c(O)c(Br)c4CCC3C1CCC2O (stereo unspecified) |  | 40.9 |  | 66.6 |  | 49.4 |  | 42.2 |  | 62.5 |  | 56.4 |  | 40.5 |  | 
25 | COc1cc2c(=O)n(CCN(C)C)c3c4cc5c(cc4ccc3c2cc1OC)OCO5 |  |  | 0.239 | 3.74 | 0.973 | > 13.1 | 0.127 | 0.648 | 0.256 | > 50 | 0.583 | 19 | 0.363 | 1.14 | 0.152 | 0.559
26 | CCCCCCCC(=O)OCC(=O)[C@]1(O)Cc2c(O)c3c(c(O)c2[C@@H](OC2CC(N)C(O)C(C)O2)C1)C(=O)c1c(OC)cccc1C3=O (stereo partly specified) |  |  | 0.0263 | 0.221 |  |  |  |  | 1.67 | 4.41 |  |  |  |  | 0.0427 | 0.185
27 | O=c1cc(-c2ccccc2)oc2cc(OC/C(=N/O)c3ccc(F)cc3)ccc12 | 20.1 | > 50 | 19 | > 50 |  |  | > 50 | > 50 | 21 | > 50 | 11.4 | 35.6 | 14 | 40.2 | 8.75 | 21.1
28 | CNS(=O)(=O)OCC1OC(n2cnc3c(N)ncnc32)C(O)C1O (stereo unspecified) | > 100 | > 100 |  |  | > 100 | > 100 |  |  | > 100 | > 100 | > 100 | > 100 | > 100 | > 100 | > 100 | > 100
29 | COc1ccccc1NS(=O)(=O)c1ccc2oc(SC(C)C)nc2c1 | 16.3 | 88.6 | 6.09 | 29.1 | 33.6 | > 100 | 5.23 | 39.7 | 14.8 | 84.1 | 19.3 | 40.4 |  |  | 3.99 | 17.4
30 | COc1ccc(N(/C=C/C(=O)C(F)(F)F)CC(=O)c2ccc(Cl)cc2)cc1 | 29.6 | 87.8 |  |  | 25 | 67.3 | 15.4 | 55.5 | 15.7 | 53.1 | 12.8 | 36.2 | 16.3 | 48.5 | 15 | 29.5
31 | COc1cc(-n2ccnc2)cc(OC)c1OC | 95.1 | > 100 |  |  | > 100 | > 100 | 42.2 | > 100 | 34.2 | > 100 | 51.6 | > 100 | > 100 | > 100 | 59 | > 100
32 | C=C(C)C(=O)O[C@@H]1C/C(C)=C\[C@H](OC(C)=O)C[C@](C)(O)/C=C2/OC(=O)C(COC(C)=O)=C21 |  | > 23.3 |  | 0.0496 |  | 47 |  | 2.32 |  |  |  |  |  |  |  | 8.4
33 | COc1ccc(/C=C\c2cc(OC)c(OC)c(OC)c2)cc1OCC(=O)Nc1ccc2nc(C)sc2c1 |  |  |  |  | 4.32 | > 100 | 2.11 | 5.68 | 2.36 | 8 | 6.32 | 69.2 | 5.06 | > 100 | 1.97 | 5.14
